Laboratory results from US11970731B2, “Enhancement of nucleic acid polymerization by aromatic compounds” (priority 2018, dated 2024).

Tests used:
[1] = molecular target: T1, C4760 DNA polymerase (a variant of DPO4) (Saccharolobus solfataricus, UniProt Q97W02, A155G/A42V/D156R/D292Y/D294N/E291S/E324K/E325K/E327K/E63R/E79L/G187P/G299W/I153V/I189F/I248T/I295S/K152A/K317Q/K321Q/K56Y/K78D/L293W/M76W/N188Y/P184Q/Q82W/Q83G/R300S/S297Y/S86E/T290K/T301W/V289W/V296Q); assay: Primer extension assays using a 411mer amplicon template; type: biochemical, Sulfolobus solfataricus; settings: comparator compound 14 (lane 1)
T1 construct: made in house
T1 sequence (Q97W02 other isoform, or with tags, fused parts or gaps with the stated changes): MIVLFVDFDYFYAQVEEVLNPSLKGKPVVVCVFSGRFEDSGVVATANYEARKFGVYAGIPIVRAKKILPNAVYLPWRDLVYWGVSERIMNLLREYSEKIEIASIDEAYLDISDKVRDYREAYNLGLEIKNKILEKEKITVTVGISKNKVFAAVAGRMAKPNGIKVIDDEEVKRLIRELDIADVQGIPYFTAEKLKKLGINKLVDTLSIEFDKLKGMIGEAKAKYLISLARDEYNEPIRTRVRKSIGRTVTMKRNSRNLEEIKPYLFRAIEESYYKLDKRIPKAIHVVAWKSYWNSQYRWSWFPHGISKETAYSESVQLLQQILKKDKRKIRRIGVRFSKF
Description: PEM activity of compound 15 was tested in primer extension assays using a 411mer amplicon template. Primer extension reactions included the following reagents: 50 mM TrisCl, 200 mM NH4OAc, 20% PEG8K, 5% NMS, 3 nmol PP-60.20, 2 mM MnCl2, 2 μg Kod single-strand binding protein (SSB), 1 M urea, 250 pmol each XNTP, 1 pmol template, 1 pmol oligonucleotide primer, 1.2 μg purified recombinant C4760 DNA polymerase (a variant of DPO4, see SEQ ID NO:2), and 2 (lane 2) or 3 (lane 3) mM PEM. 10 μL primer extension reactions were run for 20 minutes at 37° C. and reaction products were analyzed by gel electrophoresis. A representative gel showing primer extension products is presented in FIG. 12 (the position of a 277mer is indicated by the arrow). […] Remarkably, the polymerase is completely dependent upon the addition of PEM to the reaction in order to be capable of synthesizing these lengthy Xpandomer products. Even longer extension products may be obtained by optimizing various reaction parameters, e.g., extension time and/or concentrations of various additives.
PEM activity of compound 19, was tested in primer extension assays using the 411 mer amplicon template. […] 10 μL primer extension reactions were run for 30 minutes at 37° C. and reaction products were analyzed by gel electrophoresis. […]

[2] = system: DNA polymerase; assay: Screen of PEMs for enhancement of XNTP polymerization (primer extension, gel electrophoresis); type: biochemical; settings: FIG. 4 gel; 45 mer template; without PEM additive up to only around 14 XNTPs
Description: A representative primer extension reaction may include the following reagents: 2 pmol primer, 2.2 pmol 45 mer oligonucleotide template, 50 pmol of each XNTP (XATP, XCTP, XGTP, and XTTP), 50 mM Tris HCl, pH 6.79, 200 mM NaCl, 20% PEG, 5% NMS, 0.5 nmol polyphosphate 60.19, 0.3 mM MnCl2, and 0.6 μg of purified recombinant DNA polymerase protein. Reactions may be run for 1 hr at 23° C. Reaction products (i.e., constrained Xpandomers) are treated to cleave the phosphoramidate bonds, thereby generating linearized Xpandomers. Reaction products may be analyzed using gel electrophoresis on 4-12% acrylamide gels to resolve and visualize Xpandomer products of different lengths. For the PEM screen described above, PEMs were typically tested in the micro to millimolar range.
Again, this PEM activity is specific for compound 2, as other unrelated aromatic compounds had no effect (lanes 2-7).

[3] = system: DNA polymerase; assay: Sequencing by Expansion (SBX) of primer extension products, nanopore sequence reads aligned to template; type: biochemical
Description: To investigate the accuracy of PEM-dependent enhancement of XNTP polymerization, primer extension products were sequenced using the SBX protocol. Briefly, the constrained Xpandomer products of XNTP polymerization are cleaved to generate linearized Xpandomers. This is accomplished by first quenching the extension reaction with a solution containing 100 mM EDTA, 2 mM THPTA, and 2% Tween-20. Then the sample is subjected to amine modification with a solution of 1 M NaHCO3 and 1 M succinic anhydride in DMF. Cleavage of the phosphoramidate bonds is carried out with 37% HCl and linearized Xpandomers are purified with QIAquick columns (QIAGEN, Inc.).
For sequencing, protein nanopores are prepared by inserting α-hemolysin into a DPhPE/hexadecane bilayer member in buffer B1, containing 2 M NH4Cl and 100 mM HEPES, pH 7.4. The cis well is perfused with buffer B2, containing 0.4 M NH4Cl, 0.6 M GuCl, and 100 mM HEPES, pH 7.4. The Xpandomer sample is heated to 70° C. for 2 minutes, cooled completely, then a 2 μL sample is added to the cis well. A voltage pulse of 90 mV/390 mV/10 μs is then applied and data is acquired via Labview acquisition software.
Sequence data is analyzed by histogram display of the population of sequence reads from a single SBX reaction. […] Representative histograms of SBX sequencing of a 45mer template are presented in FIG. 6A (no additive control) and FIG. 6B (SBX in the presence of PEM compound 1).

[4] = molecular target: T2, C4552 (variant of DPO4 DNA polymerase) (Saccharolobus solfataricus, UniProt Q97W02, A155G/A42V/D156R/D292Y/D294N/E291S/E324K/E325K/E327K/E79L/G187P/G299W/I153V/I189F/I248T/I295S/K152A/K317Q/K321Q/K56Y/K78D/L293W/M76W/N188Y/P184Q/Q82W/Q83G/R300S/S297Y/S86E/T290K/T301W/V289W/V296Q); assay: XNTP polymerization reactions on longer templates (88, 127, 227, 277 nucleotides); type: biochemical, Sulfolobus solfataricus; settings: 1 mM compound; templates of 88, 127, 227 and 277 nucleotides; 3 or 4 nmol PP-60.20; 1-2 hr at 23° C.; FIG. 8
T2 construct: made in house
T2 sequence (Q97W02 other isoform, or with tags, fused parts or gaps with the stated changes): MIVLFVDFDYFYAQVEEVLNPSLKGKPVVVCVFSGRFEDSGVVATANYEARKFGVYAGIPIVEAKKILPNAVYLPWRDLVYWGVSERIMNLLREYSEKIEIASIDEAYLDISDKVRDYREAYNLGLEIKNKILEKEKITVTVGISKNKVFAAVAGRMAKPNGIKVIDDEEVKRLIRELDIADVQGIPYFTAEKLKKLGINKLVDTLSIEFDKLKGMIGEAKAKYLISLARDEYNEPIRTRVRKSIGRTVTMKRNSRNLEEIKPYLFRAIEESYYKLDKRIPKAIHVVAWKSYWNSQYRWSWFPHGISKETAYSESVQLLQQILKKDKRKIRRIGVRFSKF
Description: Following the success of accurately replicating templates of up to 80 nucleotides in length into Xpandomers, XNTP polymerization reactions were conducted using four longer templates, consisting of 88, 127, 227, and 277 nucleotides in length. A variant of DPO4 DNA polymerase, referred to as C4552 (SEQ ID NO:1), was used in these polymerization reactions and reaction conditions were optimized for C4552 activity in the presence of PEM compound 1. Other suitable DPO4 polymerase variants include, but are not limited to, those of SEQ ID NO:2, SEQ ID NO:3, SEQ ID NO:4, and SEQ ID NO:5. In addition to 1 mM compound 1, reaction additives included 1 mM urea and 2.75 μg single-strand binding protein (Eco SSB). Extension reactions were carried out with 0.85 pmol template, 0.5 pmol oligonucleotide primer, and 1 nmol each XNTP in a final volume of 10 μL. Reactions were run in buffer composed of 50 mM TrisCl, pH 8.84, 200 mM NH4OAc, and 20% PEG8K supplemented with 5% NMS, polyphosphate PP-60.20 in amounts of 3 or 4 nmol, and 2 mM MnCl2. 1.2 μg purified recombinant DNA polymerase protein was used in each extension reaction and reactions were run for 1-2 hr at 23° C. […] Lanes 1-5 and 6-10 represent identical extension reactions with the exception of the amount of PP-60.20 additive, which was 3 nmol in lanes 1-5 and 4 nmol in lanes 6-10.

[5] = molecular target: T3, C4552 DNA polymerase (Saccharolobus solfataricus, UniProt Q97W02, A155G/A42V/D156R/D292Y/D294N/E291S/E324K/E325K/E327K/E79L/G187P/G299W/I153V/I189F/I248T/I295S/K152A/K317Q/K321Q/K56Y/K78D/L293W/M76W/N188Y/P184Q/Q82W/Q83G/R300S/S297Y/S86E/T290K/T301W/V289W/V296Q); assay: Primer extension assays using three 100mer templates derived from HIV1, 2 and 3 genomes; type: biochemical, Sulfolobus solfataricus; settings: 0.5 mM PEM; HIV1, HIV2, HIV3 100mer templates; 30 minutes at 23° C.; FIG. 9
T3 construct: made in house
Description: PEM activity of compounds 9-11 was tested in primer extension assays using three 100mer templates, derived from the HIV1, 2, and 3 genomes. Primer extension reactions included the following reagents: 75 mM TrisCl, pH 8.44, 175 mM NH4OAc, 20% PEG8K, 5% NMS, 0.8 nmol PP-60.20, 0.6 mM MnCl2, 2.3 μg Tth single-strand binding protein (SSB), 0.5 M or 1 M urea, 200 pmol each XNTP, 1.1 pmol template, 1 pmol oligonucleotide primer, 1.2 μg purified recombinant C4552 DNA polymerase, and 0.5 mM PEM. 10 μL primer extension reactions were run for 30 minutes at 23° C. and reaction products were analyzed by gel electrophoresis.

**Q.** How did the “PEM activity: polymerization of XNTPs into Xpandomer copies of the 411 mer template” value ([1]; 0.5, 1, or 1.5 mM PEM, 0.5 pmol template, 30 minutes at 37° C., FIG. 14) turn out when `NC(=O)c1cc(-c2cn(-c3ccc(C(=O)O)c(O)c3)nn2)nc(-c2cn(-c3ccc(C(=O)O)c(O)c3)nn2)c1` [Compound 19, 4,4′-((4-carbamoylpyridine-2,6-diyl)bis(1H-1,2,3-triazole-4,1-diyl))bis(2-hydroxybenzoic acid)] was run?
**A.** Its value is “enables polymerization of XNTPs into lengthy Xpandomer copies of the 411 mer template, albeit in a manner less efficient than that of compound 14”.

**Q.** How did the “PEM activity: polymerization of XNTPs into Xpandomer copies of the 411 mer template” value ([1]; 2 or 3 mM PEM, 1 pmol template, 20 minutes at 37° C., FIG. 12) turn out when `CCOC(=O)c1cc(-c2cn(-c3ccc(O)c(C(=O)O)c3)nn2)nc(-c2cn(-c3ccc(O)c(C(=O)O)c3)nn2)c1` [Compound 15, 5,5′-((4-(ethoxycarbonyl)pyridine-2,6-diyl)bis(1H-1,2,3-triazole-4,1-diyl))bis(2-hydroxybenzoic acid)] was run?
**A.** Its value is “enables polymerization of XNTPs into lengthy Xpandomer copies of the 411 mer template in a manner comparable to that of compound 14”.

**Q.** Which results are given for `O=C(O)c1ccc(-n2cc(-c3cccc(-c4cn(-c5ccc(C(=O)O)c(O)c5)nn4)n3)nn2)cc1O` [Compound 1, 4,4′-(pyridine-2,6-diylbis(1H-1,2,3-triazole-4,1-diyl))bis(2-hydroxybenzoic acid)]?
**A.** DNA polymerase-mediated primer extension with XNTPs (length of extension products) [2]: enables the polymerase to synthesize considerably longer extension products; accuracy of SBX sequence reads ([3]; 45mer template, FIG. 6B, without additive reads not accurate past around base 18): increased the accuracy of the sequence reads across the entire length of the 45 mer template; accuracy of SBX sequence reads ([3]; 60 mer template, FIG. 7A): enabled accurate sequence reads completely to the end of each of these longer templates; accuracy of SBX sequence reads ([3]; 80 mer template, FIG. 7B): enabled accurate sequence reads completely to the end of each of these longer templates; polymerization of XNTPs into Xpandomer copies of longer templates [4]: generate complete Xpandomer copies of each longer template; PEM activity: polymerization of XNTPs into Xpandomer copies of 100 mer templates [5]: enables polymerization of XNTPs into full length Xpandomer copies of the three different 100 mer templates
